Converted amounts (≈) assume the structure as drawn. Counter-ions that a name gives are not always drawn.
What was measured:
[1] = MIC stated in the synthesis examples; type: cell-based; conditions: strain and medium not given
[2] = system: Candida albicans ATCC 26278; assay: minimum inhibitory concentration for elected strain; type: cell-based
Experimental: The in vitro activity has been evaluated by the method of serial dilutions in parallel on solid YNB medium and on YNB w/o+AN medium, where the abbreviation AN means 200 mg of sodium glutamate, 10 mg of L-histidine, 20 mg of DL-methionine, 20 mg DL-tryptophane, 10 g of glucose and 15 g of agar-agar per 1 liter of the YNB medium. The application of the medium modified in such a manner was made necessary by the known phenomenon of lower biological activity in the media containing ammonium sulphate as a source of nitrogen.

| SMILES | MIC [1] | minimum inhibitory concentration, MIC [2] |
| --- | --- | --- |
| COC(=O)/C=C/C(=O)NC[C@H](N)C(=O)N[C@@H](CCSC)C(=O)N[C@@H](C)C(=O)O [Example I, N^3-4-methoxyfumaryl-L-2,3-diaminopropanoyl-L-methionyl-L-aniline] | 0.1 µg/mL (≈ 0.239 µM) | – |
| COC(=O)/C=C/C(=O)NC[C@H](NC(=O)[C@@H](N)CCSC)C(=O)N[C@@H](CCSC)C(=O)O [VIII, N^2 -L-methionyl, n^3-4-methoxyfumaryl-L-2,3-diaminopropanoyl-L-methonine hydrochloride] | 0.8 µg/mL | – |
| CCC[C@H](NC(=O)[C@@H](N)CCSC)C(=O)N[C@@H](CNC(=O)/C=C/C(=O)OC)C(=O)O [XVI, N^2 -L-methionyl-L-norvalyl, N^3-4-methoxyfumaryl-L-2,3-diaminopropanoic hydrochloride] | 0.8 µg/mL | 0.4 µg/mL |
| CCC[C@H](NC(=O)[C@@H](N)CCCCN)C(=O)N[C@@H](CNC(=O)/C=C/C(=O)OC)C(=O)O [XXII, N^2 --L-lysyl-L-norvalyl-N^3-4-methoxyfumaryl-L-2,3-diaminopropanoic dihydrochloride] | – | 0.02 µg/mL |
